Experimental data taken from patent US4164448A, “Activation of cholesterol oxidase for cholesterol assay” (Boehringer Mannheim GmbH, priority 1973, dated 1979).
Like-named read-outs stand apart in the source and are kept apart here.

Legend:
[1] = system: cholesterol oxidase; assay: Activation of cholesterol oxidase by surface-active compounds; type: biochemical; conditions: for activation of cholesterol oxidase: result in words; for appropriate concentration range of surface-active compound for activation: too small an amount gives no activation, too large denatures the enzyme
Text: In addition, other surface-active substances with lipophilic and hydrophilic properties which contain at least one hydroxyl group, can also be used. Examples of such compounds include ethanol, butyl-diglycol and hexyleneglycol.
The appropriate concentration range, as well as the optimum concentration, can be experimentally determined for all appropriate surface-active agents.

[2] = system: cholesterol oxidase; assay: Determination of cholesterol in serum with detergent-free cholesterol oxidase, extinction at 240 nm; type: biochemical; conditions: 0.4% in 0.5 M potassium phosphate buffer pH 7.5, 0.1 U enzyme; without surface-active agent 15 minutes were required
Method: 0.05 ml. of serum were added to 10 ml. 0.5 M potassium phosphate buffer of pH 7.5 which contained 0.4% hydroxypolyethoxydodecane. The extinction (E1) was read off at 240 nm in a suitable spectrophotometer and the reaction started with 0.02 ml. (0.1 U) of storage-stable cholesterol oxidase, freed from traces of detergent, in 1 M aqueous ammonium sulfate solution. After 3 minutes, the extinction (E2) was read off. The concentration of the cholestenone formed and thus of the cholesterol was given by the difference between the first and second readings, having regard to the molar extinction coefficients for […] at 240 nm. The measurement of a typical sample gave 62 mg.% free cholesterol and 167 mg.% total cholesterol (after saponification).
A comparative determination but without the addition of the surface-active agent required a reaction time of 15 minutes.

[3] = system: cholesterol oxidase; conditions: 1 M ammonium sulfate, 33° C.
Method: The experiments were carried out with an octyl-phenol-ethylene oxide adduct.

Compound | activation of cholesterol oxidase [1] | appropriate concentration range of surface-active compound for activation [1] [wt.%] | also measured
OC1CCCCC1 [cyclohexanol] | no activation |  | 
OCCO [ethylene glycol] | no activation |  | 
OCC(O)CO [glycerol] | no activation |  | 
CO [methanol] | no activation |  | 
C[C@H](CCC(=O)O)[C@H]1CC[C@H]2[C@@H]3CC[C@@H]4C[C@H](O)CC[C@]4(C)[C@H]3C[C@H](O)[C@]12C [sodium desoxycholate] |  | 0.03 to 0.05 | 
desoxycholates | Similarly good results |  | 
hydroxypolyethoxydodecane |  | 0.15 to 0.6 | reaction time of the cholesterol determination [2]: 3 min
octyl-phenol-ethylene oxide adduct |  | 0.03 to 0.1 | Activity of cholesterol oxidase in %, referred to freshly prepared enzyme ([3]; detergent 0.02%, storage period 10 days): 60%; Activity of cholesterol oxidase in %, referred to freshly prepared enzyme ([3]; detergent 0.02%, storage period 22 days): 40%; Activity of cholesterol oxidase in %, referred to freshly prepared enzyme ([3]; detergent 0.05%, storage period 10 days): 7%; Activity of cholesterol oxidase in %, referred to freshly prepared enzyme ([3]; detergent 0.05%, storage period 22 days): 1%; Activity of cholesterol oxidase in %, referred to freshly prepared enzyme ([3]; detergent 0.6%, storage period 10 days): 3%; Activity of cholesterol oxidase in %, referred to freshly prepared enzyme ([3]; detergent 0.6%, storage period 22 days): 1%; Activity of cholesterol oxidase in %, referred to freshly prepared enzyme ([3]; detergent amount not printed (column between 0.05% and 0.6%), storage period 10 days): 7%; Activity of cholesterol oxidase in %, referred to freshly prepared enzyme ([3]; detergent amount not printed (column between 0.05% and 0.6%), storage period 22 days): 1%
polyoxyethylene derivatives of sorbitol anhydrides |  | 0.15 to 0.6 | 
